Patent publication US6147097A, “Imidazole derivatives as anti-HIV agents” (Shionogi & Co., Ltd., priority 1994, dated 2000)
Converted amounts (≈) assume the structure as drawn. Where a name gives a salt, the structure may show the parent alone. Read-outs that look alike come from different tables or passages of the source.

Key:
HIV (HTLV-IIIB strain) = assay: microbe, parasite or virus in culture; assay type: cell-based; settings: Human immunodeficiency virus 1, IIIB, MT4, 120 h
How it was run: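 Protection from virus was read as viable-cell MTT conversion to formazan after 5 days at 37° C. The cultures contained MT-4 cells (3.5×10^4/well), compound dilutions and 60 pfu HIV per well.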

[1] = molecular target: T1, purified recombinant HIV-1 reverse transcriptase (Human immunodeficiency virus type 1 group M subtype B, UniProt P04585); assay: reverse transcriptase inhibition, poly(rA)/(dT) template primer, [3H]dTTP uptake; assay type: biochemical
T1 construct: purified recombinant HIV-1 reverse transcriptase; made in house; host or cells: Escherichia coli
How it was run: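 Inhibition reported as percent reduction of [3H]dTTP incorporation relative to solvent control, after 1 h at 37 °C at pH 8.3. Recombinant RT from E. coli, poly(rA) template with oligo(dT) primer, 4 μM unlabeled dTTP as substrate; product collected on DEAE filter mats.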

[2] = cytotoxicity in MT-4 cells (MTT, culture medium in place of HIV); assay type: cell-based; settings: human
How it was run: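 Uninfected readout: compound-treated MT-4 cultures, 3.5×10^4 cells/well, received medium in place of virus and were kept 5 days at 37° C. Viability measured by 1 h MTT reduction, solubilized formazan read at 560/690 nm relative to control wells.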

[3] = MT-4 cells, 60 pfu HIV per well, 37° C., 5 days, MTT, Tables 1 and 2, read-out: EC50

SMILES	EC50 (HIV (HTLV-IIIB strain); [3]) [µg/mL]	IC50 [1] [µM]	CC50 at 120 h ([2]; MT-4 cells, no virus, 37° C., 5 days, MTT, Table 3, read-out: CC50) [µg/mL]	CC50 at 120 h ([2]; mt-4 cells) [µg/mL]	IC50 ([1]; read-out: RT IC50, pH 8.3, 37° C., 1 hour, Tables 5 and 6) [µM]	EC50 (HIV (HTLV-IIIB strain)) [µg/mL]
Cc1cc(C)cc([S+]([O-])c2c(C(C)C)nc(CO)n2C)c1 (stereo not drawn) [Compound I-106, [5-(3,5-dimethylphenylsulfinyl)-4-isopropyl-1-methyl-1H-imidazol-2-yl]methanol]	1 to 10 (≈ 3.26 to 32.6 µM)	> 326	100 (≈ 326 µM)			
CC(C)c1nc(CO)n(Cc2ccccc2N)c1Sc1cc(Cl)cc(Cl)c1 [Compound I-119, 1-(o-aminobenzyl)-5-(3,5-dichlorophenylthio)-2-hydroxymethyl-4-isopropyl-1H-imidazole]	0.13 to 0.25 (≈ 0.308 to 0.592 µM)	7.81		3.1 (≈ 7.34 µM)		
CC(C)c1nc(CO)n(Cc2cccc3ccccc23)c1Sc1cc(Cl)cc(Cl)c1.Cl [Compound I-120, 5-(3,5-dichlorophenylthio)-2-hydroxymethyl-4-isopropyl-1-(1-naphthylmethyl)-1H-imidazole hydrochloride]	0.13	99.6		100		
CC(C)c1nc(CO)n(CCc2ccccc2)c1Sc1cc(Cl)cc(Cl)c1 [Compound I-121, 5-(3,5-dichlorophenylthio)-2-hydroxymethyl-4-isopropyl-1-(2-phenylethyl)-1H-imidazole]	0.06 (≈ 0.142 µM)	85.2		12.5 (≈ 29.7 µM)		
CC(C)c1nc(CO)n(CCCc2ccccc2)c1Sc1cc(Cl)cc(Cl)c1 [Compound I-122, 5-(3,5-dichlorophenylthio)-2-hydroxymethyl-4-isopropyl-1-(3-phenylpropyl)-1H-imidazole]	0.008 (≈ 0.0184 µM)	7.12		6.3 to 12.5 (≈ 14.5 to 28.7 µM)		
CC(C)c1nc(CO)n(CCCCc2ccccc2)c1Sc1cc(Cl)cc(Cl)c1 [Compound I-123, 5-(3,5-dichlorophenylthio)-2-hydroxymethyl-4-isopropyl-1-(4-phenylbutyl)-1H-imidazole]	0.06 (≈ 0.133 µM)	77.4		12.5 (≈ 27.8 µM)		
CC(C)c1nc(CO)n(CCCCCc2ccccc2)c1Sc1cc(Cl)cc(Cl)c1 [Compound I-124, 5-(3,5-dichlorophenylthio)-2-hydroxymethyl-4-isopropyl-1-(5-phenylpentyl)-1H-imidazole]	0.25 (≈ 0.539 µM)	> 216		12.5 (≈ 27 µM)		
CC(C)c1nc(CO)n(CCCCCCc2ccccc2)c1Sc1cc(Cl)cc(Cl)c1 [Compound I-125, 5-(3,5-dichlorophenylthio)-2-hydroxylmethyl-4-isopropyl-1-(6-phenlylhexyl)-1H-imidazole]	0.5 to 1 (≈ 1.05 to 2.09 µM)	> 209		12.5 (≈ 26.2 µM)		
CC(C)c1nc(CO)n(Cc2cccs2)c1Sc1cc(Cl)cc(Cl)c1.Cl [Compound I-126, 5-(3,5-dichlorophenylthio)-2-hydroxymethyl-4-isopropyl-1-(2-thienylmethyl)-1H-imidazole hydrochloride]	0.03	30.9		12.5 to 25		
CC(C)c1nc(CO)n(Cc2ccsc2)c1Sc1cc(Cl)cc(Cl)c1 [Compound I-127, 5-(3,5-dichlorophenylthio)-2-hydroxymethyl-4-isopropyl-1-(13-thienylmethyl)-1H-imidazole hydrochloride]	0.016	14.8		12.5 to 25		
CC(C)c1nc(COC(N)=O)n(Cc2cnc3ccccc3c2)c1Sc1cc(Cl)cc(Cl)c1 [Compound I-128, 2-carbamoyloxymethyl-5-(3,5-dichlorophenylthio)-4-isopropyl-1-(quinolin-3-ylmethyl)-1H-imidazole]	< 0.008	5.38		> 100		
CC(C)c1nc(COC(N)=O)n(CCc2ccccn2)c1Sc1cc(Cl)cc(Cl)c1 [Compound I-129, 2-carbamoyloxymethyl-5-(3,5-dichlorophenylthio)-4-isopropyl-1-(2-(2-pyridyl)ethyl)-1H-imidazole]	0.06 (≈ 0.129 µM)	76.9		12.5 to 25 (≈ 26.9 to 53.7 µM)		
CC(C)c1nc(COC(N)=O)n(CCCc2ccccn2)c1Sc1cc(Cl)cc(Cl)c1 [Compound I-130, 2-carbamoyloxymethyl-5-(3,5-dichlorophenylthio)-4-isopropyl-1-(3-(2-pyridyl)propyl)-1H-imidazole]	< 0.008	3.96		6.3 to 12.5 (≈ 13.1 to 26.1 µM)		
CC(C)c1nc(COC(N)=O)n(Cc2ccc(=O)[nH]c2)c1Sc1cc(Cl)cc(Cl)c1 [Compound I-131, 2-carbamoyloxymethyl-5-(3,5-dichlorophenylthio)-1-(6-oxo-1,6-dihydro-pyridin-3-yl)methyl-4-isopropyl-1H-imidazoles]	0.003 (≈ 0.00642 µM)	2.78		38.8 (≈ 83 µM)		
Cc1ncccc1Cn1c(COC(N)=O)nc(C(C)C)c1Sc1cc(Cl)cc(Cl)c1 [Compound I-133, 2-carbamoyloxymethyl-5-(3,5-dichlorophenylthio)-4-isopropyl-1-(2-methylpyridin-3-ylmethyl)-1H-imidazole]	0.008 (≈ 0.0172 µM)	72.2		12.5 (≈ 26.9 µM)		
CC(C)c1nc(COC(N)=O)n(CCOC(N)=O)c1Sc1cc(Cl)cc(Cl)c1 [Compound I-134, 1-(2-carbamoyloxyethyl)-2-carbamoyloxymethyl-5-(3,5-dichlorophenylthio)-4-isopropyl-1H-imidazole]	0.0013 (≈ 0.00291 µM)	1.54		12.5 to 25 (≈ 27.9 to 55.9 µM)		
CC(C)c1nc(CC(N)=O)n(C)c1Sc1cc(Cl)cc(Cl)c1 [Compound I-135, 2-[5-(3,5-dichlorophenylthio)-4-isopropyl-1-methyl-1H-imidazol-2-yl] acetamide]	0.016 to 0.03 (≈ 0.0447 to 0.0837 µM)	10.6		25 to 50 (≈ 69.8 to 140 µM)		
CC(C)c1nc(CCOCc2ccccc2)n(C)c1Sc1cc(Cl)cc(Cl)c1 [Compound I-136, 2-(2-benzyloxyethyl)-5-(3,5-dichlorophenylthio)-4-isopropyl-1-methyl-1H-imidazole]	0.008 to 0.016 (≈ 0.0184 to 0.0367 µM)			12.5 (≈ 28.7 µM)	4.59	
CCn1c(CCOC(N)=O)nc(C(C)C)c1Sc1cc(Cl)cc(Cl)c1 [Compound I-137, 2-(2-carbamoyloxyethyl)-5-(3,5-dichlorophenylthio)-1-ethyl-4-isopropyl-1H-imidazole]		8.2		50 (≈ 124 µM)		0.004 to 0.008 (≈ 0.00994 to 0.0199 µM)
CC(C)c1nc(CCOC(N)=O)n(Cc2ccncc2)c1Sc1cc(Cl)cc(Cl)c1 [Compound I-138, 2-(2-carbamoyloxyethyl)-5-(3,5-dichlorophenylthio)-4-isopropyl-1-(pyridin-4-yl)methyl-1H-imidazole]	0.008 (≈ 0.0172 µM)	3.22		12.5 (≈ 26.9 µM)		
CC(C)c1nc(CCO)n(Cc2ccc(N)cc2)c1Sc1cc(Cl)cc(Cl)c1 [Compound I-139, 1-(p-aminobenzyl)-5-(3,5-dichlorophenylthio)-2-hydroxyethyl-4-isopropyl-1H-imidazole]	< 0.008	3.67		6.3 (≈ 14.4 µM)		
CC(C)c1nc(CCOC(N)=O)n(Cc2ccc(N)cc2)c1Sc1cc(Cl)cc(Cl)c1 [Compound I-140, 1-(p-aminobenzyl)-2-(2-carbamoyloxyethyl)-5-(3,5-dichlorophenylthio)-4-isopropyl-1H-imidazole]	0.03 to 0.06 (≈ 0.0626 to 0.125 µM)	29.8		6.3 to 12.5 (≈ 13.1 to 26.1 µM)		
CC(C)c1nc(CCO)n(Cc2cccc(N)c2)c1Sc1cc(Cl)cc(Cl)c1 [Compound I-141, I-(m-aminobenzyl)-5-(3,5-dichlorophenylthio)-2-hydroxyethyl-4-isopropyl-1H-imidazole]	< 0.008	4.12		25 to 50 (≈ 57.3 to 115 µM)		
CC(C)c1nc(CCOC(N)=O)n(Cc2cccc(N)c2)c1Sc1cc(Cl)cc(Cl)c1 [Compound I-142, 1-(m-aminobenzyl)-2-(2-carbamoyloxyethyl)-5-(3,5-dichlorophenylthio)-4-isopropyl-1H-imidazole]	0.016 to 0.03 (≈ 0.0334 to 0.0626 µM)	25		6.3 to 12.5 (≈ 13.1 to 26.1 µM)		
CC(C)c1nc(CCO)n(Cc2ccccc2N)c1Sc1cc(Cl)cc(Cl)c1 [Compound I-143]	0.008 (≈ 0.0183 µM)	77		12.5 (≈ 28.6 µM)		
CC(C)c1nc(CCOC(N)=O)n(CCOC(N)=O)c1Sc1cc(Cl)cc(Cl)c1 [Compound I-147, 1,2-di-(2-carbamoyloxyethyl)-5-(3,5-dichlorophenylthio)-4-isopropyl-1H-imidazole]	0.005 (≈ 0.0108 µM)	4.33		50 to 100 (≈ 108 to 217 µM)		
